Assays:
[1] = molecular target: human Gal-3 (hGal-3) (Homo sapiens (Human), UniProt P17931); experiment: Competitive binding assay: biotinylated hGal-3 to microplate-adsorbed asialofetuin (ASF); details: Activity on hGal-3; binding to ASF-coated plates, 3 hours at 4° C.; mean values
Outline: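 Biotinylated hGal-3 (300-1000 ng/mL) binding to plate-adsorbed asialofetuin, with DMSO-diluted compound added, incubated 3 h at 4 °C. After washing, bound protein detected with streptavidin-peroxidase (80 ng/mL, 1 h, 4 °C) and ABTS substrate, read spectrophotometrically. IC50 given as mean of several measurements.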

[2] = molecular target: human Gal-1 (hGal-1) (Homo sapiens, UniProt P09382); experiment: Competitive binding assay: biotinylated hGal-1 to microplate-adsorbed asialofetuin (ASF); details: Activities on hGal-1; binding to ASF-coated plates, 3 hours at 4° C.; mean values; read-out: Gal-1 IC50
Sequence of human Gal-1 (hGal-1) (P09382 2-135 limits assumed): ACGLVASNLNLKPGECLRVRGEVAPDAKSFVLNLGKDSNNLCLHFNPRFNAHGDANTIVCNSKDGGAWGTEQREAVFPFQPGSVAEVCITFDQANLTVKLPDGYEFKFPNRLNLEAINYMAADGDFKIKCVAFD
Outline: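 Plate-adsorbed asialofetuin is incubated 3 h at 4 °C with biotinylated hGal-1, optionally its all-serine-substituted cysteine variant, plus compound dilutions. ABTS color after 1 h streptavidin-peroxidase (80 ng/mL) at 4 °C reports binding. Reported IC50 is a mean across repeat runs.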

Sequence of human Gal-3 (hGal-3) (P17931 whole entry): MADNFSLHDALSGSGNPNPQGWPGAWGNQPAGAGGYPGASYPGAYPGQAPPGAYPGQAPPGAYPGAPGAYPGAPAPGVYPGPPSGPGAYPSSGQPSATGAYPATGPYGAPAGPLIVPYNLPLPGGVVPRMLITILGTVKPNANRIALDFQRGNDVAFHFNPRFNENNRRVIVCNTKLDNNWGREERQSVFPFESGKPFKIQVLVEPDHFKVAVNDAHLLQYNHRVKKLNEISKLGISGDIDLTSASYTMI

Row | Structure (SMILES) | IC50 [1] | IC50 [2]
1 | CO[C@@H]1[C@@H](n2cc(-c3cc(F)c(F)c(F)c3)nn2)[C@@H](O)[C@@H](CO)O[C@@H]1CC1=NO[C@]2(CC[C@@H](C(C)C)CC2)C1 [Example 1.28, (2R,3R,4S,5R,6R)-2-(hydroxymethyl)-6-(((5s,8S)-8-isopropyl-1-oxa-2-azaspiro[4.5]dec-2-en-3-yl)methyl)-5-methoxy-4-(4-(3,4,5-trifluorophenyl)-1H-1,2,3-triazol-1-yl)tetrahydro-2H-pyran-3-ol] | 2 µM | 6.9 µM
2 | CO[C@@H]1[C@@H](n2cc(-c3cc(F)c(F)c(F)c3)nn2)[C@@H](O)[C@@H](CO)O[C@@H]1CC1=NOC2(CCC(NCC(F)(F)F)CC2)C1 (stereo partly drawn) [Example 2.17, (2R,3R,4S,5R,6R)-2-(hydroxymethyl)-5-methoxy-6-((8-((2,2,2-trifluoroethyl)amino)-1-oxa-2-azaspiro[4.5]dec-2-en-3-yl)methyl)-4-(4-(3,4,5-trifluorophenyl)-1H-1,2,3-triazol-1-yl)tetrahydro-2H-pyran-3-ol] | 0.21 µM | 1.4 µM
3 | CO[C@@H]1[C@@H](n2cc(-c3ccc(F)c(F)c3F)nn2)[C@@H](O)[C@@H](CO)O[C@@H]1CC1=NO[C@]2(CC[C@@H](C(C)(C)O)CC2)C1 [Example 1.53, (2R,3R,4S,5R,6R)-2-(hydroxymethyl)-6-(((5s,8S)-8-(2-hydroxypropan-2-yl)-1-oxa-2-azaspiro[4.5]dec-2-en-3-yl)methyl)-5-methoxy-4-(4-(2,3,4-trifluorophenyl)-1H-1,2,3-triazol-1-yl)tetrahydro-2H-pyran-3-ol] | 0.27 µM | 1.2 µM
4 | CO[C@@H]1[C@@H](n2cc(-c3cc(F)c(F)c(F)c3)nn2)[C@@H](O)[C@@H](CO)O[C@@H]1CC1=NOC2(CCN(C(=O)OC(C)(C)C)CC2)C1 [Example 1.06, tert-butyl 3-(((2R,3R,4S,5R,6R)-5-hydroxy-6-(hydroxymethyl)-3-methoxy-4-(4-(3,4,5-trifluorophenyl)-1H-1,2,3-triazol-1-yl)tetrahydro-2H-pyran-2-yl)methyl)-1-oxa-2,8-diazaspiro[4.5]dec-2-ene-8-carboxylate] | 0.34 µM | 4.2 µM
5 | CO[C@@H]1[C@@H](n2cc(-c3cc(F)c(F)c(F)c3)nn2)[C@@H](O)[C@@H](CO)O[C@@H]1CC1=NO[C@]2(CC[C@@H](NC3CC3)CC2)C1 [Example 2.23, (2R,3R,4S,5R,6R)-6-(((5s,8S)-8-(cyclopropylamino)-1-oxa-2-azaspiro[4.5]dec-2-en-3-yl)methyl)-2-(hydroxymethyl)-5-methoxy-4-(4-(3,4,5-trifluorophenyl)-1H-1,2,3-triazol-1-yl)tetrahydro-2H-pyran-3-ol] | 0.59 µM | 1.6 µM
6 | CO[C@@H]1[C@@H](n2cc(-c3cc(F)c(F)c(F)c3)nn2)[C@@H](O)[C@@H](CO)O[C@@H]1CC1=NOC2(CCC(O)CC2)C1 (stereo partly drawn) [Example 2.01, 3-(((2R,3R,4S,5R,6R)-5-hydroxy-6-(hydroxymethyl)-3-methoxy-4-(4-(3,4,5-trifluorophenyl)-1H-1,2,3-triazol-1-yl)tetrahydro-2H-pyran-2-yl)methyl)-1-oxa-2-azaspiro[4.5]dec-2-en-8-ol] | 0.25 µM | 2.2 µM
7 | CO[C@@H]1[C@@H](n2cc(-c3cc(F)c(F)c(Cl)c3)nn2)[C@@H](O)[C@@H](CO)O[C@@H]1CC1=NOC2(CCCCC2)C1 [Example 1.31, (2R,3R,4S,5R,6R)-6-((1-oxa-2-azaspiro[4.5]dec-2-en-3-yl)methyl)-4-(4-(3-chloro-4,5-difluorophenyl)-1H-1,2,3-triazol-1-yl)-2-(hydroxymethyl)-5-methoxytetrahydro-2H-pyran-3-ol] | 0.26 µM | 0.97 µM
8 | CO[C@@H]1[C@@H](n2cc(-c3cc(F)c(F)c(F)c3)nn2)[C@@H](O)[C@@H](CO)O[C@@H]1CC1=NOC2(CCN(C)CC2)C1 [Example 2.29, (2R,3R,4S,5R,6R)-2-(hydroxymethyl)-5-methoxy-6-((8-methyl-1-oxa-2,8-diazaspiro[4.5]dec-2-en-3-yl)methyl)-4-(4-(3,4,5-trifluorophenyl)-1H-1,2,3-triazol-1-yl)tetrahydro-2H-pyran-3-ol] | 0.38 µM | 4.8 µM

Now those with a lower IC50 [1], led by results:

Row | IC50 [1] | IC50 [2] | Structure (SMILES)
9 | 0.18 µM | 3.4 µM | CO[C@@H]1[C@@H](n2cc(-c3ccc(C)c(F)c3F)nn2)[C@@H](O)[C@@H](CO)O[C@@H]1CC1=NO[C@]2(CC[C@@H](C(C)(C)O)CC2)C1 [Example 1.63, (2R,3R,4S,5R,6R)-4-(4-(2,3-difluoro-4-methylphenyl)-1H-1,2,3-triazol-1-yl)-2-(hydroxymethyl)-6-(((5s,8S)-8-(2-hydroxypropan-2-yl)-1-oxa-2-azaspiro[4.5]dec-2-en-3-yl)methyl)-5-methoxytetrahydro-2H-pyran-3-ol]
10 | 0.16 µM | 6 µM | CO[C@@H]1[C@@H](n2cc(-c3ccc(Br)c(F)c3F)nn2)[C@@H](O)[C@@H](CO)O[C@@H]1CC1=NOC2(CCCCC2)C1 [Example 1.17, (2R,3R,4S,5R,6R)-6-((1-oxa-2-azaspiro[4.5]dec-2-en-3-yl)methyl)-4-(4-(4-bromo-2,3-difluorophenyl)-1H-1,2,3-triazol-1-yl)-2-(hydroxymethyl)-5-methoxytetrahydro-2H-pyran-3-ol]
11 | 0.12 µM | 2.7 µM | CO[C@@H]1[C@@H](n2cc(-c3ccc(Cl)c(F)c3F)nn2)[C@@H](O)[C@@H](CO)O[C@@H]1CC1=NO[C@]2(CC[C@@H](C(C)(C)O)CC2)C1 [Example 1.65, (2R,3R,4S,5R,6R)-4-(4-(4-chloro-2,3-difluorophenyl)-1H-1,2,3-triazol-1-yl)-2-(hydroxymethyl)-6-(((5s,8S)-8-(2-hydroxypropan-2-yl)-1-oxa-2-azaspiro[4.5]dec-2-en-3-yl)methyl)-5-methoxytetrahydro-2H-pyran-3-ol]
12 | 0.09 µM | 2.3 µM | CO[C@@H]1[C@@H](n2cc(-c3ccc(C)c(F)c3F)nn2)[C@@H](O)[C@@H](CO)O[C@@H]1CN1CC2(CCOCC2)OC1=O [Example 3.03, 3-(((2R,3R,4S,5R,6R)-4-(4-(2,3-difluoro-4-methylphenyl)-1H-1,2,3-triazol-1-yl)-5-hydroxy-6-(hydroxymethyl)-3-methoxytetrahydro-2H-pyran-2-yl)methyl)-1,8-dioxa-3-azaspiro[4.5]decan-2-one]
13 | 0.084 µM | 5.2 µM | Cc1ccc(-c2cn([C@H]3[C@@H](O)[C@@H](CO)O[C@H](CC4=NOC5(CCOCC5)C4)[C@@H]3O)nn2)c(F)c1F [Example 1.02, (2R,3R,4R,5R,6R)-2-((1,8-dioxa-2-azaspiro[4.5]dec-2-en-3-yl)methyl)-4-(4-(2,3-difluoro-4-methylphenyl)-1H-1,2,3-triazol-1-yl)-6-(hydroxymethyl)tetrahydro-2H-pyran-3,5-diol]
14 | 0.074 µM | 1.7 µM | CO[C@@H]1[C@@H](n2cc(-c3ccc(C)c(F)c3F)nn2)[C@@H](O)[C@@H](CO)O[C@@H]1CN1CC2(CCCCC2)N=C1C [Example 4.03, (2R,3R,4S,5R,6R)-4-(4-(2,3-difluoro-4-methylphenyl)-1H-1,2,3-triazol-1-yl)-2-(hydroxymethyl)-5-methoxy-6-((2-methyl-1,3-diazaspiro[4.5]dec-1-en-3-yl)methyl)tetrahydro-2H-pyran-3-ol]
15 | 0.061 µM | 4.2 µM | CC(=O)O[C@@H]1[C@@H](n2cc(-c3ccc(C)c(F)c3F)nn2)[C@@H](O)[C@@H](CO)O[C@@H]1CC1=NOC2(CCOCC2)C1 [Example 1.01, (2R,3R,4S,5R,6R)-2-((1,8-dioxa-2-azaspiro[4.5]dec-2-en-3-yl)methyl)-4-(4-(2,3-difluoro-4-methylphenyl)-1H-1,2,3-triazol-1-yl)-5-hydroxy-6-(hydroxymethyl)tetrahydro-2H-pyran-3-yl acetate]
16 | 0.041 µM | 0.53 µM | CO[C@@H]1[C@@H](n2cc(-c3ccc(C)c(F)c3F)nn2)[C@@H](O)[C@@H](CO)O[C@@H]1CC1=NO[C@]2(CC[C@H](C#N)CC2)C1 [Example 1.57, (5r,8R)-3-(((2R,3R,4S,5R,6R)-4-(4-(2,3-difluoro-4-methylphenyl)-1H-1,2,3-triazol-1-yl)-5-hydroxy-6-(hydroxymethyl)-3-methoxytetrahydro-2H-pyran-2-yl)methyl)-1-oxa-2-azaspiro[4.5]dec-2-ene-8-carbonitrile]
17 | 0.012 µM | 0.3 µM | CO[C@@H]1[C@@H](n2cc(-c3ccc(F)c(F)c3F)nn2)[C@@H](O)[C@@H](CO)O[C@@H]1CC1=NO[C@]2(CC[C@H](NC(=O)OC(C)(C)C)CC2)C1 [Example 1.41, tert-butyl ((5r,8R)-3-(((2R,3R,4S,5R,6R)-5-hydroxy-6-(hydroxymethyl)-3-methoxy-4-(4-(2,3,4-trifluorophenyl)-1H-1,2,3-triazol-1-yl)tetrahydro-2H-pyran-2-yl)methyl)-1-oxa-2-azaspiro[4.5]dec-2-en-8-yl)carbamate]

— patent US20230295182A1, “SPIRO DERIVATIVES OF ALPHA-D-GALACTOPYRANOSIDES” (Idorsia Pharmaceuticals Ltd, priority 2020, published 2023)
